Converted amounts (≈) assume the structure as drawn. Peptide text beside a SMILES is read from it. * marks the point of attachment. FITC = O=C1OC2(c3ccc(O)cc3Oc3cc(O)ccc32)c2ccc(NC(=S)*)cc21; Ahx = NCCCCCC(=O)O
How the values were obtained:
[1] = test system: C. albicans American Type Culture Collection (ATCC) 10,231; format: cell-based, Candida albicans; details: American Type Culture Collection (ATCC) 10,231, 24 h
Protocol: C. albicans (ATCC 10231) from the American Type Culture Collection (Manassas, VA, USA) was cultured at 28 °C on SD agar plates.
To determine the minimum inhibitory concentration (MIC) values of the FITC conjugated-P-113 peptides and their derivatives, a broth microdilution assay was used. Overnight-grown cultures of C. albicans in SD broth were sub-cultured for several hours and subsequently diluted to a final concentration of 5 × 10^4 CFU/mL in Mueller Hinton (MH) broth and LYM broth. A total of 100 μL of diluted microbe was transferred into each well of a 96-well plate, into which a 1 μL dilution series of peptides in sterile water (ranging from 50 to 0.78 μg/mL) was previously added. After incubation for 24 h at 28 ℃, the MIC value of P-113 peptides was determined as the lowest concentration at which no change in optical density was observed. The experiment was conducted three times, and average values were reported.

Candida albicans = format: cell-based; details: 24 h, 1
Protocol: Figure 7 Time killing activity of FITC-labeled P-113 peptide and its FITC-labeled derivatives against Candida albicans. Cells were treated with 1× MIC of (a) P-113 (black circle), FITC-labeled N-terminal truncated P-113 (black square), FITC-labeled C-terminal truncated P-113 (black triangle), and (b) treated with FITC-labeled Bip-P-113 (white square), and FITC-labeled Dip-P-113 (white triangle). Killed cells (%) = (cell number in peptide-free control − cell number in sample)/(cell number in peptide-free control) × 100. Error bars represent the standard errors of the mean.
C. albicans were cultivated onto Sabouraud dextrose agar plates overnight and sub-cultured twice before time killing assays. A total of 5 × 10^4 CFU/mL of C. albicans cells were treated with 1× MIC of FITC-conjugated P-113 peptides and their derivatives in SD broth for 10, 20, 30, 60, and 120 min at 28 °C. After that time, serial dilutions (1:10) of the incubation mixtures were added onto SD agar. The numbers of CFU were counted after 24 h of incubation at 28 °C. The percentage of killed cells was calculated by comparison with the number of cells in a control sample incubated without P-113 peptide. The assays were performed in triplicate.

[2] = test system: living C. albicans cells (secreted aspartic proteinases, Saps); test: Degradation of P-113 by living C. albicans cells (NMR); format: in vitro ADME, Candida albicans
Protocol: For living cell NMR experiments, the interaction between ^15N-labeled P-113 peptides and C. albicans was monitored by 2D heteronuclear single quantum coherence (HSQC) spectroscopy. The peptides were dissolved in SD broth for a total volume of 500 μL at a 0.275 mM concentration. After centrifugation, 10^7 CFU/mL of cells were resuspended in 50 μL of SD broth and then titrated into the peptide solution. The ^15N-^1H HSQC spectra were recorded on a Bruker Avance 600-MHz NMR spectrometer in the States-TPPI mode for quadrature detection at 301 K. The ^1H and ^15N carriers were placed at 4.699 and 120 ppm, respectively. After titration, 2D HSQC spectra were collected every hour during 24 h of incubation at 301 K. All spectra were processed with NMRPipe and analyzed using the Sparky program (T.D. Goddard and D.G. Kneller, SPARKY3, University of California, San Francisco, CA, USA).
To obtain sequence assignment information, 3D spectra, including those from HNCA, HN(CO)CA, HNCACB, HN(CO)CACB, HN(CA)CO, and HNCO experiments, were recorded on a Bruker Avance 600-MHz NMR spectrometer at 301 K. The ^13C carriers were placed at 48 ppm for C^α, at 38 ppm for ^13C^α/β and at 174 ppm for C′. All spectra were processed with NMRPipe and analyzed using the Sparky program.
To observe the correlation of amide nitrogen (^15Ni) to the carbon (^13C′) spin in the proceeding residue (^13C′i−1), 2D CON experiments were performed on Bruker Avance 850-MHz NMR spectrometer equipped with a triple-resonance cryogenic probe. The spectra comparing ^15N-, ^13C-labeled P-113 in SD broth and in a C. albicans titration were recorded with the center frequencies at 120 ppm (^15N) and 174 ppm (^13C), respectively. All spectra were processed with NMRPipe and analyzed using the Sparky program.
The inhibition of P-113 degradation by C. albicans was determined using living cell NMR experiments as described above in the presence of 0.5 mM of the aspartic protease inhibitor pepstatin A.

C. albicans [3] = test: Confocal laser microscopy, localization of FITC peptides; format: cell-based, Candida albicans; details: 50 μM FITC-conjugated peptide, 10^7 CFU/mL, SD broth, 28 °C, 5 min
Protocol: Firstly, 10^7 CFU/mL of C. albicans was incubated with 0.25 mM FITC P-113 and 0.25 mM FITC alone (as a negative control) in SD broth at 28 °C for 1, 2, 3, 4, 5, and 6 h. Another experiment was performed to observe the short-term localization of Bip-P-113 and Dip-P-113 peptides. Briefly, log-phase C. albicans cultures were resuspended to a cell density of 10^7 CFU/mL in SD broth and treated for 5 min at 28 °C with 50 μM FITC-conjugated P-113, Bip-P-113, and Dip-P-113. After centrifugation, the cells were washed three times with 20 mM phosphate buffer (pH 7.4) to remove nonbinding peptides and fixed with 4% (w/v) paraformaldehyde in 20 mM phosphate buffer (pH 7.4) at room temperature for 20 min. Following fixation, the cells were centrifuged at 3500× g for 5 min, resuspended in phosphate buffer, and loaded onto a glass slide with a 1.4% solid agarose bed. The images were taken with a confocal laser scanning microscope (LSM 510 META, Carl Zeiss, Jena, Germany) equipped with a 40× C-Apochromat water-immersion objective lens (Carl Zeiss, Jena, Germany).

C. albicans [4] = test: Scanning electron microscopy, cell morphology; format: cell-based, Candida albicans; details: 0.25 mM P-113, 10^7 CFU/mL, SD broth, 28 °C, 1-6 h
Protocol: Time-course morphological studies of C. albicans were performed by scanning electron microscopy (SEM). Overnight cultures of C. albicans were sub-cultured and grown in SD broth. Then, 10^7 CFU/mL of C. albicans was treated with 0.25 mM P-113 in SD broth at 28 °C. Samples were collected following 1, 2, 3, 4, 5, and 6 h of incubation. Another experiment was performed to observe the morphological changes caused over in a short time caused by Bip-P-113 and Dip-P-113. Briefly, 10^7 CFU/mL of C. albicans in SD broth was treated for 5 min at 28 °C with 50 μM P-113, Bip-P-113, and Dip-P-113. After harvest, cells were resuspended in fixation solution (2.5% glutaraldehyde in 20 mM phosphate buffer pH 7.4) and then placed on Thermanox substrate-coated cover slips at 4 °C for 12 h. The cover slips were carefully washed three times with 20 mM phosphate buffer (pH 7.4), followed by incubation in post-fixation solution (1% OsO4 in 20 mM phosphate buffer pH 7.4) at room temperature for an hour. After being washed three times with 20 mM phosphate buffer (pH 7.4), the cover slips were air-dried for an hour by dehydration with a graded series of ethanol. Samples were gold-coated and observed under an S-4700 field-emission (FE)-SEM (Hitachi, Ltd., Tokyo, Japan) at an acceleration voltage of 5 kV.

[5] = 0.01% P-113 (0.07 μM) in a mouthrinse treatment, clinical trial; cited from earlier work

## C[C@H](NC(=O)CCCCCNC(=S)Nc1ccc2c(c1)C(=O)OC21c2ccc(O)cc2Oc2cc(O)ccc21)C(=O)N[C@@H](CCCCN)C(=O)N[C@@H](CCCNC(=N)N)C(=O)N[C@@H](Cc1c[nH]cn1)C(=O)N[C@@H](Cc1c[nH]cn1)C(=O)NCC(=O)N[C@@H](Cc1ccc(O)cc1)C(=O)N[C@@H](CCCCN)C(=O)N[C@@H](CCCNC(=N)N)C(=O)N[C@@H](CCCCN)C(=O)N[C@@H](Cc1ccccc1)C(=O)N[C@@H](Cc1c[nH]cn1)C(N)=O [Peptide P-113] ({FITC-Ahx}-AKRHHGYKRKFH-NH2; N-terminus assumed)
[1]
  MIC, LYM Control: 3.13 µg/mL (≈ 1.51 µM)
  MIC, MH Broth: >50 µg/mL
Candida albicans
  Killed cells: 87%
[2]; 0.25 mM 15N-,13C-labeled P-113, 10^7 CFU/mL C. albicans, SD broth, 301 K, 24 h, 15N-13C CON and 3D backbone assignment
  Cleavage sites: Tyr7-Lys8, Lys8-Arg9, and Lys10-Phe11
[2]; 0.25 mM 15N-labeled P-113 (no FITC), 10^7 CFU/mL C. albicans, SD broth with 10% D2O, 301 K, 1H-15N HSQC every hour
  Incubation time to near-complete degradation of P-113: 5 h
[2]; 0.25 mM 15N-labeled P-113, 10^7 CFU/mL C. albicans, SD broth, 301 K, new HSQC cross-peaks
  Time at which the first cleavage (Lys10-Phe11) was observed: 1 h
[2]; 0.25 mM P-113, 10^7 CFU/mL C. albicans + 0.5 mM pepstatin A, 301 K, 24 h
  Changes in 1H-15N HSQC chemical shifts (degradation) in the presence of pepstatin A: no noticeable changes
[2]; 0.25 mM P-113, C. albicans below 10^7 cells/mL, data not shown
  Changes in chemical shifts (degradation) at cell densities below 10^7 cells/mL: did not show any noticeable changes
C. albicans [3]
  Cellular localization of FITC peptide: accumulated in the cytosol
C. albicans [4]
  Cell surface morphology (SEM), time course: smooth
[5]
  Effect on gingivitis and plaque: reduced the development of gingivitis and plaque
